In PubChem BioAssay AID1963834 (Molecular Pharmacology Branch, DTP, NCI, 2024):

Test system: 873145-292-R-J1-PDC complex spheroid viability
Experiment: Anticancer human tumor 873145-292-R-J1-PDC patient-derived renal clear cell carcinoma cell line growth inhibition [POLQ]
Settings: for IC50: curve of first compound; for viability, T/C: stronger effect = lower value
Protocol: Multicellular complex tumor spheroid response to Polymerase (POL) inhibitors (novobiocin, ART-558, RP6685) in combination with a variety of drugs and investigational agents in selected tumor cell lines
The POL inhibitors (novobiocin, ART-558, and RP6685) were evaluated both individually and in combination with standard of care and investigational anticancer small molecules within a complex spheroid model of solid tumors. . Complex spheroids include a stromal component modeled by human endothelial cells (HUVEC) and fibroblasts modeled by human mesenchymal stem cells (MSCs). The concentration ranges selected for each drug and investigational agent were based upon clinically achievable concentrations if the clinical Cmax of the agent was known.
Compounds. The drugs and investigational agents: novobiocin (NSC847541), ART-558 (NSC835418), RP-6685 (NSC848927), peposertib (NSC802822), ceralasertib (NSC780249), elimusertib (NSC800525), camonsertib (NSC841442), AZD-1390 (NSC803789), olaparib (NSC753686), talazoparib (NSC767125), rucaparib (NSC756644), sotorasib (NSC818433), MRTX-1133 (NSC836407), SN-38 (NSC673596), topotecan (NSC609699), epotoside (NSC141540), doxorubicin (NSC123127), gemcitabine (NSC613327), 5-fluorouracil (NSC19893), paclitaxel (NSC125973), vemurafenib (NSC761431), MSA-2 (NSC828583), SN-011 (NSC837082), adavosertib (NSC754352), prexasertib (NSC758257), carboplatin (NSC241240) and oxaliplatin (NSC266046), were obtained from the National Cancer Institute (NCI) Developmental Therapeutics Program Chemical Repository (21). The FDA-approved anticancer drug set is available from the Developmental Therapeutics Program at https://dtp.cancer.gov/organization/dscb/obtaining/. […] The stock solutions were prepared in dimethyl sulfoxide (DMSO, Sigma-Aldrich, St. Louis, MO, cat. D2650), except for the platinum compounds which were prepared in saline (Quality Biological, Gaithersburg, MD, cat. 114-055-101), at 800-fold the tested concentration and stored at -70 degrees C prior to their use. All drugs and investigational agents were tested over a range starting from a high concentration at or near the clinical Cmax and decreasing in half-log increments. If the clinical Cmax for an agent had not been determined, the highest concentration tested was 10 microM, except for SN-38, which was tested at a high concentration of 1 microM.
Cell Culture. All cells were maintained in an incubator at 37 degrees C and 5% CO2 with 95% humidity. The PDC lines were cultured according to standard operating procedures established by the NCI PDMR (https://pdmr.cancer.gov). Table 3 of the manuscript, lists the cell lines along with the number of the three cell types plated to form the mct-spheroids and media for tumor cell growth. After thawing, all PDC lines, except 997537-175-T-J1-PDC and 415267-285-R-J2-PDC, were cultured in Matrigel-coated flasks prepared with a working solution of 1X Ham's F-12 nutrient mix, without supplementation (Thermo Fisher Scientific, cat. 11765054), 100 U/mL penicillin-streptomycin (Thermo Fisher Scientific, cat. 15140122), and 2.5% Matrigel (Corning Inc., Corning, NY, cat. 354248) for the first three passages. The two PDC lines 997537-175-T-J1-PDC and 415267-285-R-J2-PDC were cultured on uncoated flasks. The 857933-349-R-J2-PDC line was cultured in 6C/Colon 1B media containing advanced DMEM/F-12 (Thermo Fisher Scientific, cat. 12634028), 10 mM HEPES (Thermo Fisher Scientific, cat. 15630080), 1X GlutaMAX supplement (Thermo Fisher Scientific, cat. 35050061), 0.1 mg/mL primocin (InvivoGen, San Diego, CA, cat. ant-pm-2), 10% defined fetal bovine serum, heat inactivated (HyClone Laboratories Inc., Logan, UT, cat. SH30070.03HI), 50% L-WRN conditioned media (ATCC, cat. CRL-3276), 1.25 mM N-Acetyl-L-cysteine (Sigma-Aldrich, cat. A9165), 10 mM nicotinamide (Sigma-Aldrich, cat. N0636), 1X B-27 supplement (Thermo Fisher Scientific, cat. 17504044), 1X N-2 supplement (Thermo Fisher Scientific, cat. […]
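Further: spheroids exposed to compounds for 7 days before viability readout.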
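Wherever viability, T/C is given: luminescence signal used as surrogate for viable cell content; 100% = DMSO vehicle control viability.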

Compound O=C(c1cc(Cc2n[nH]c(=O)c3ccccc23)ccc1F)N1CCN(C(=O)C2CC2)CC1 + COC1C(OC(N)=O)C(O)C(Oc2ccc3c(O)c(NC(=O)c4ccc(O)c(CC=C(C)C)c4)c(=O)oc3c2C)OC1(C)C has an IC50 (second compound 0.0316 µM) greater than 10 µM, an IC50 (second compound 0.1 µM) greater than 10 µM and an IC50 (second compound 0.316 µM) greater than 10 µM. For the same compound, the IC50 (second compound 1 µM) was greater than 10 µM, the IC50 (second compound 3.16 µM) was greater than 10 µM and the IC50 (second compound 10 µM) was greater than 10 µM. For the same compound, the viability, T/C (second compound 0.0316 µM, first compound 0.0316 µM) was 112%, the viability, T/C (second compound 0.0316 µM, first compound 0.1 µM) was 94.8% and the viability, T/C (second compound 0.0316 µM, first compound 0.316 µM) was 106%. It also gave a viability, T/C (second compound 0.0316 µM, first compound 1 µM) of 97.2%, a viability, T/C (second compound 0.0316 µM, first compound 3.16 µM) of 109% and a viability, T/C (second compound 0.0316 µM, first compound 10 µM) of 103%. For the same compound, the viability, T/C (second compound 0.1 µM, first compound 0.0316 µM) was 117%, the viability, T/C (second compound 0.1 µM, first compound 0.1 µM) was 94.9% and the viability, T/C (second compound 0.1 µM, first compound 0.316 µM) was 90.8%. The viability, T/C (second compound 0.1 µM, first compound 1 µM) was 96.2%, the viability, T/C (second compound 0.1 µM, first compound 3.16 µM) was 92.6% and the viability, T/C (second compound 0.1 µM, first compound 10 µM) was 100%. For the same compound, the viability, T/C (second compound 0.316 µM, first compound 0.0316 µM) was 106%, the viability, T/C (second compound 0.316 µM, first compound 0.1 µM) was 97.5% and the viability, T/C (second compound 0.316 µM, first compound 0.316 µM) was 93.2%. For the same compound, the viability, T/C (second compound 0.316 µM, first compound 1 µM) was 90.8%, the viability, T/C (second compound 0.316 µM, first compound 3.16 µM) was 103% and the viability, T/C (second compound 0.316 µM, first compound 10 µM) was 93.2%. For the same compound, the viability, T/C (second compound 1 µM, first compound 0.0316 µM) was 94.5%, the viability, T/C (second compound 1 µM, first compound 0.1 µM) was 104% and the viability, T/C (second compound 1 µM, first compound 0.316 µM) was 100%. It also gave a viability, T/C (second compound 1 µM, first compound 1 µM) of 87.2%, a viability, T/C (second compound 1 µM, first compound 3.16 µM) of 101% and a viability, T/C (second compound 1 µM, first compound 10 µM) of 103%. The viability, T/C (second compound 3.16 µM, first compound 0.0316 µM) was 108%, the viability, T/C (second compound 3.16 µM, first compound 0.1 µM) was 107% and the viability, T/C (second compound 3.16 µM, first compound 0.316 µM) was 106%. The viability, T/C (second compound 3.16 µM, first compound 1 µM) was 94.2%, the viability, T/C (second compound 3.16 µM, first compound 3.16 µM) was 99.5% and the viability, T/C (second compound 3.16 µM, first compound 10 µM) was 96.2%. For the same compound, the viability, T/C (second compound 10 µM, first compound 0.0316 µM) was 88%, the viability, T/C (second compound 10 µM, first compound 0.1 µM) was 103% and the viability, T/C (second compound 10 µM, first compound 0.316 µM) was 96.3%. It also gave a viability, T/C (second compound 10 µM, first compound 1 µM) of 92.2%, a viability, T/C (second compound 10 µM, first compound 3.16 µM) of 107% and a viability, T/C (second compound 10 µM, first compound 10 µM) of 97.2%.
